The values that follow come from patent US20140045807A2, “THE USE OF 3-METHOXY-PREGNENOLONE FOR THE PREPARATION OF A DRUG FOR TREATING A TRAUMATIC BRAIN INJURY” (priority 2004, published 2014).

Series [1] relates to MAP2. Put plainly: Western blot of MAP2 in cortex and hippocampus after CCI. The format is in vivo, rat. Particulars: 20 mg/kg, first injection 2 h post-trauma, day 35, injured and non-injured cortex and hippocampus. Here is the method: FIG. 19: MAP-2 expression, 35 days after TBI, in the left-uninjured and right-injured hemispheres (A: cortex and B: hippocampus) of CCI-injured animals, receiving either vehicle (D0) or MAP4343 (D1: 10 mg/kg and D2: 20 mg/kg), 2 h after injury.
(§1) Samples were analyzed by Western-blot at day 35 post-trauma (D35) to evaluate the effects of MAP4343 on: MAP2 (the target of MAP4343 and a modulator of microtubule function), the post-synaptic markers PSD95 and spinophilin, the pre-synaptic marker synaptophysin, and the axonal growth/integrity marker GAP43.
(§2) Western blot was performed on cortex and hippocampus of TBI-injured animals receiving the first injection of MAP4343 (at 10 mg/kg or 20 mg/kg) or vehicle (sesame oil) 2 h after injury.
(§3) The expression level of various neuronal brain markers of plasticity was measured at day 35 post-trauma by western-blots in the cortex and hippocampus of left uninjured and right injured cerebral hemispheres of CCI traumatized animals receiving either vehicle (sesame oil, CCI-D0) or 3-methoxy-PREG (MAP4343) at 10 mg/kg (CCI-D1) or 20 mg/kg (CCI-D2), with first MAP4343 injection 2 h post-trauma.

Series [2] has as its system PC12 cells. As to the kind of experiment: Retraction of neurites induced by nocodazole. The format is cell-based, rat. Conditions: pretreated one hour at 30 μM, nocodazole 15 minutes. The source says:
FIG. 5: Retraction of neurites (neurites) induced by nocodazole.
Nocodazole is a microtubule depolymerizing agent. Its addition to PC12 cell cultures, differentiated in the presence of NGF, causes neurites to retract as a result of the depolymerization of their microtubules.

The test system of series [3] is Sprague Dawley rats, recognition memory. Put plainly: Novel object recognition test (NOR). Format: in vivo, rat. Here is the method: FIG. 14: 3-methoxy-PREG (43B) enhanced retention of recognition memory in naïve animals and recovered recognition memory deficits in social isolated rats. (A) Sesame Oil treated rats cannot discriminate between the novel and the familiar object following a 4 h inter trial interval (ITI) time. In contrast, 43B (10 mg/kg subcutaneously) treated rats retain the ability to discriminate between the novel and the familiar object. Mean±SEM, n=11-12 per group. ***p<0.001 vs sesame oil (T-test). (B) Isolated animals treated with sesame oil cannot discriminate between the novel and the familiar object following […], while grouped (control) rats clearly discriminate. […]
Cognitive dysfunction, including impaired recognition memory, are common features in depressed patients (Egeland et al., Scand. J. Psychol. 2005). […] Recognition memory was assessed using the NOR test which is a two-trial test of recognition memory based on the spontaneous preference of rats for novelty (Ennaceur and Delacour, Behav. Brain. Res. 1988; Bianchi et al., EJN 2006). […] The ability of the animals to discriminate between the novel and the familiar object is then expressed as: D2-INDEX: [novel object (sec)-familiar object (sec)]/[novel object (sec)+familiar object (sec)] […]

For series [4], the target named is Androgen Receptor (AR) (Rattus norvegicus, UniProt P15207). As to the kind of experiment: Radioligand binding assay, AR. Conditions: MAP4343 10 μM; 1.5 nM [^3H] Mibolerone; Rat recombinant E. coli. As to the method: Binding affinity of 3-methoxy-PREG (MAP4343) for receptors of steroid hormones was evaluated using radioligand binding assays.
Androgen Receptor (AR), sequence (P15207 whole entry S389L): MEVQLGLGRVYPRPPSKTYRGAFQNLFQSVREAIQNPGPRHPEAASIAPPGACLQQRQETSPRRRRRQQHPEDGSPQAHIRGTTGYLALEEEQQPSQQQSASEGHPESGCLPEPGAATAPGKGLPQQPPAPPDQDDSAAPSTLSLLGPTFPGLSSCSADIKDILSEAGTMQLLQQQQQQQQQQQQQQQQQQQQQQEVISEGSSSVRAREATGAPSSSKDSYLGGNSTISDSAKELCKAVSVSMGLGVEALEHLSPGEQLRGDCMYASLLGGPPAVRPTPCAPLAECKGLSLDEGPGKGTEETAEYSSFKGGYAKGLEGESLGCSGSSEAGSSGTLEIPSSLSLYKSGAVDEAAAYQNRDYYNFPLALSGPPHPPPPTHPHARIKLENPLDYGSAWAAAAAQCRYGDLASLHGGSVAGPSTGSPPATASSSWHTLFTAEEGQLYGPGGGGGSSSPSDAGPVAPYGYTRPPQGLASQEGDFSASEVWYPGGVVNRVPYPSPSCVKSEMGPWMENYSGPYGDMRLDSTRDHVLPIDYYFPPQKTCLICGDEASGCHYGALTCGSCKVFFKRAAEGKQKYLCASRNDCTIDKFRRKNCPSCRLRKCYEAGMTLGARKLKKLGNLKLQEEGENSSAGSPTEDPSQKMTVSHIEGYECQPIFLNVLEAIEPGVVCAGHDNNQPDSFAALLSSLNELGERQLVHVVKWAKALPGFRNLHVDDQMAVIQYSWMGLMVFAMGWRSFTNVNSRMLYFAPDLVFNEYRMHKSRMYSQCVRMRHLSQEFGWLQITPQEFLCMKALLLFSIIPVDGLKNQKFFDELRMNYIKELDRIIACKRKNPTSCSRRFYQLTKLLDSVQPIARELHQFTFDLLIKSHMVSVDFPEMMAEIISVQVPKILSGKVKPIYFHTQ
The test system of series [5] is PSD95. As to the kind of experiment: Western blot of PSD95 in cortex and hippocampus after CCI. The format is in vivo, rat. Conditions: 20 mg/kg, first injection 2 h post-trauma, day 35, ipsilateral injured cortex and hippocampus, contralateral cortex. Here is the method: FIG. 20: PSD-95 expression, 35 days after TBI, in the left-uninjured and right-injured hemispheres (A: cortex and B: hippocampus) of CCI-injured animals, receiving either vehicle (D0) or MAP4343 (D1: 10 mg/kg and D2:20 mg/kg), 2 h after injury.
as §1, §2, §3
In general terms: A western blot detects proteins with antibodies after separation by electrophoresis.

The subject of series [6] is PC12 cell line. As to the kind of experiment: Cellular toxicity test. The format is cell-based, rat. Particulars: concentrations as high as solubility limits (approximately 50 μM). As to the method: Cellular toxicity tests are carried out routinely on the PC12 cell line.
Series [7] is described as follows: Neurosteroids and 3-methoxy-PREG levels in plasma and hippocampus. Conditions: rat.
Series [8] is described as follows: In vivo toxicity, daily injection for one month. Also on record: species or system rat. Conditions: rats, daily injection for one month of 48 mg/kg.
A short description of series [9]: Solubility limit. Particulars: read-out: solubility limits. Format: physicochemical.
The subject of series [10] is 80 different CNS neurotransmitters receptors. As to the kind of experiment: Screen for in vitro affinity to 80 different CNS neurotransmitters receptors. Format: binding. The text has this:
MAP4343 has been screened for in vitro affinity to 80 different CNS neurotransmitters receptors using various validated binding assays.

[11] abbreviates: 3 h following injection, 10 mg/kg subcutaneously.

SMILES strings stand for the structures. Values after ≈ are worked out from the molar mass of the structure shown. Some results are limits rather than exact numbers.

For `CO[C@H]1CC[C@@]2(C)C(=CC[C@H]3[C@@H]4CC[C@H](C(C)=O)[C@@]4(C)CC[C@@H]32)C1` [3-methoxy-PREG, 3β-methoxy-pregna-5-ene-20-one], in [1], the MAP-2 expression entry was “strong increase”. Further, in series [2], the “resistance of neurites to nocodazole” value is recorded as “makes the neurites resistant to nocodazole”. In [3] (10 mg/kg subcutaneously 1 h before task, ITI of 1 h), the “discrimination of novel and familiar object, social isolated rats” value is “efficiently discriminated between the familiar and the novel object”. The “discrimination of novel and familiar object, naïve animals” value in series [3] (10 mg/kg subcutaneously immediately after T1, ITI of 4 h) is “discriminated between the novel and the familiar object”. Also, the “% inhibition of specific binding” value in series [4] was less than 25%. Moreover, in series [5], the PSD95 expression result is on record as “increase in PSD95 expression”. Further, the cellular toxicity result in series [6] is reported as “do not demonstrate toxicity”. The “conversion back to PREG or metabolism to PROG” value in [7] (3 h after 10 mg/kg subcutaneously) was “not converted back to PREG or metabolized to PROG”. In addition, in [7] (setting [11]), the “concentration of the drug in hippocampus” value amounted to 73.3 ± 14.68 ng/g and the “concentration of the drug in plasma” value came out at 21.11 ± 5.04 ng/mL. Moreover, the “average weight and behavior” value in series [8] is “affected neither average weight nor behavior”. Besides, the solubility (as a rule, the concentration that dissolves in the medium under given conditions) in series [9] is approximately 50 µM (≈ 16.5 µg/mL). Also, in [10], the “affinity for any tested receptor” value is on record as “no significant affinity”.
